Reference: patent EP0383759B1 (Discovery Therapeutics, Inc., priority 1987, dated 1988)

Columns and labels:
fat cell A1 receptor = target: T1, fat cell A1 receptor (Rattus norvegicus, UniProt P25099); experiment: antagonism of R-PIA-induced inhibition of isoproterenol-stimulated adenylate cyclase activity in fat cell membranes; format: biochemical; conditions: result in words
T1 construct: from tissue; host or cells: rat fat cell membranes
T1 sequence (P25099 1-326): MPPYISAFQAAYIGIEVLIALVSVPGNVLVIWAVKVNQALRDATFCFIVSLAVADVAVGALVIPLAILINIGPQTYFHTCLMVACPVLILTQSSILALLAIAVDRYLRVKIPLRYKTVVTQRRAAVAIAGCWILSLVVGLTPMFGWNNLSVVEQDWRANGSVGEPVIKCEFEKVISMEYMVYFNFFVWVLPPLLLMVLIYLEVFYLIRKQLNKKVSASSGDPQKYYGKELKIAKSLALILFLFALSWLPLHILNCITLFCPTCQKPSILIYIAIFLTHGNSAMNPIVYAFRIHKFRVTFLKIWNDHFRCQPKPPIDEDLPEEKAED
Method: (§1) Human platelet, rat pheochromocytoma (PC12) cell, rat fat cell and rat cerebral cortex membranes were prepared as described (4,5,6). Adenylate cyclase activity and binding of [^3H]PIA to cerebral cortex membranes were determined essentially as described (4,5,6).
(§2) KB values for the compounds were determined as described (4). […] EC50 and IC50 values for the agonists were obtained from the concentration-response curves by linear regression after logit-log transformation. KB values of the antagonists were calculated using the Schild equation KB = C/(CR-1), where C denotes the concentration of the competitor and CR the ratio of the EC50 and IC50 values in the presence and absence, respectively, of the competitor. IC50 of the compounds for inhibition of [^3H]PIA binding to cerebral cortex membranes were transformed into Ki values as described (6).

A1 or A2 receptors = target: T2, A1 or A2 receptors (Rattus norvegicus, UniProt P25099); experiment: comparison of activity across the A1 and A2 adenosine receptor systems (discussion); format: biochemical; conditions: test system not specified
T2 sequence (P25099 1-326): T1 sequence (P25099 1-326)
Method: as §1, §2

[1] = target: T3, A2 receptors of platelets (Homo sapiens, UniProt P29274); experiment: antagonism of NECA-induced stimulation of adenylate cyclase activity of human platelet membranes; format: biochemical; conditions: for antagonist potency at the platelet A2 receptor: NECA-induced stimulation of adenylate cyclase, human platelet membranes, result in words
T3 construct: NECA-induced stimulation of adenylate cyclase activity of human platelet membranes; from tissue; host or cells: human platelet membranes
T3 sequence (P29274 whole entry): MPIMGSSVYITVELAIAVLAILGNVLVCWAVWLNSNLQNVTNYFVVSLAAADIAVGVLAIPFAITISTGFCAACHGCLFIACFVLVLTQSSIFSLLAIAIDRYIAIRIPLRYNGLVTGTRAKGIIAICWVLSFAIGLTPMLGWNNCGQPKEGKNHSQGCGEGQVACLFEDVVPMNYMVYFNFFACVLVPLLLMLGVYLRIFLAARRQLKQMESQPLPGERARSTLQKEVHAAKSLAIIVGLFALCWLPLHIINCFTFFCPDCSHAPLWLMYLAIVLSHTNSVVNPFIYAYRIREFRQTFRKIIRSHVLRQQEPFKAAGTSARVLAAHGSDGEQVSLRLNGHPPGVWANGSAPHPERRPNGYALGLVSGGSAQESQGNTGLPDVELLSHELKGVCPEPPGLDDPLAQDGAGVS
Method: as §1, §2
In these cells, A2 receptor-mediated stimulation of adenylate cyclase results in an inhibition of aggregation (5,7).

[2] = target: T4, A2 receptors of rat pheochromocytoma (PC12) cells (Rattus norvegicus, UniProt P30543); experiment: antagonism of NECA-induced stimulation of adenylate cyclase activity of PC12 cell membranes; format: biochemical; conditions: NECA-stimulated adenylate cyclase, result in words
T4 construct: NECA-induced stimulation of adenylate cyclase activity of the PC12 cells membranes; endogenous in cells; host or cells: rat pheochromocytoma PC12 cell membranes
T4 sequence (P30543 whole entry): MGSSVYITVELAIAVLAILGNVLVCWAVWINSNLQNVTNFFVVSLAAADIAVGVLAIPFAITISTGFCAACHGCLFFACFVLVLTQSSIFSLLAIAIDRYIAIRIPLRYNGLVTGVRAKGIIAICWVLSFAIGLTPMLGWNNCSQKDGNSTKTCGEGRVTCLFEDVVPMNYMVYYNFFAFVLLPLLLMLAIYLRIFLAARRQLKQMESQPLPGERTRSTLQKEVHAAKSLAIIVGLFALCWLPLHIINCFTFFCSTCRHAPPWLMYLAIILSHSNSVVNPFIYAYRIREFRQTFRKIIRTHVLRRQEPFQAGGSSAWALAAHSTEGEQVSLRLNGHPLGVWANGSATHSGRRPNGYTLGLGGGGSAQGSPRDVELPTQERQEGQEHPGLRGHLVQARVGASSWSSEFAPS
Method: as §1, §2

A1 receptors = target: T5, A1 receptors (Rattus norvegicus, UniProt P25099); experiment: inhibition of [^3H]PIA binding to rat cerebral cortex membranes; conditions: result in words
T5 construct: from tissue; host or cells: rat cerebral cortex membranes
T5 sequence (P25099 1-326): T1 sequence (P25099 1-326)
Method: as §1, §2

A1 adenosine receptor = target: T6, A1 adenosine receptor (Cavia porcellus, UniProt P47745); experiment: antagonism of adenosine agonists' reduction in force of contraction of guinea pig atrium; format: cell-based; conditions: for basal force of contraction in the atria / antagonism at adenosine receptors in the atria: guinea pig atria; for antagonism at adenosine receptors in the atria: result in words
T6 construct: The left atria from male guinea pigs were isolated; from tissue; host or cells: isolated guinea pig left atrium
T6 sequence (P47745 1-326): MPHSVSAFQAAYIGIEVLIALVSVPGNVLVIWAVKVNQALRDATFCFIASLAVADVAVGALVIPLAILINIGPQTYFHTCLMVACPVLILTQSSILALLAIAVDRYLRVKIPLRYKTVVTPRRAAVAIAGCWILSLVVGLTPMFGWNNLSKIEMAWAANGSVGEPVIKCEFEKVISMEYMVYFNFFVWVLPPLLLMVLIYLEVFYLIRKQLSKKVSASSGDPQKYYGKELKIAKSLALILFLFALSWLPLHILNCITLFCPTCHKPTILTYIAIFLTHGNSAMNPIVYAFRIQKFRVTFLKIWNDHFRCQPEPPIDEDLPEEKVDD
Method: The left atria from male guinea pigs were isolated, suspended between two punctate electrodes, and placed in a 20 ml organ bath that contained Krebs-Hensileit solution that was continuously gassed with 95% O2 + 5% CO2 and maintained at 31°C. The resting tension was one gram. Theatria were stimulated electrically at 1 hz, 1 ms duration pulses at supramaximal voltage. The force of contraction was recorded isometrically.
(§3) The ability of the compounds to antagonize the effects of agonists was analyzed using modified Schild plots.

A2-adenosine receptors = experiment: antagonism of adenosine agonists' decrease in contractile tone of guinea pig taenia caecum; format: cell-based; conditions: result in words
Method: The tissues were suspended in a 20 ml organ bath containing de Jalon's solution that was gassed with 95% O2 + 5% CO2 and maintained at 31°C. The resting tension was 1.5 g. The contractile response was measured isotonically.
as §3

[3] = test system: heart rate and blood pressure; experiment: in vivo heart rate and blood pressure in anesthetized rats after adenosine or NECA; conditions: urethan-anesthetized rats, intravenous
Description: Drug injections were made intravenously through a jugular cannula.

[4] = affinity constants, guinea pig left atria, modified Schild plots

Cn1cnc2c(NC3CCCCC3)ncnc21 [Example 6, N^6-Cyclohexyl-9-MA]
antagonistic potency at the fat cell A1 receptor (fat cell A1 receptor): more potent than the parent compound
activity at A1 receptors (A1 or A2 receptors): the most potent of N^6-substituted 9-methyladenines at A1 receptors
antagonist potency at the platelet A2 receptor [1]: more potent than 9-methyladenine itself

Cn1cnc2c(NC3CCC3)ncnc21 [Example 3, N^6-Cyclobutyl-9-MA]
antagonistic potency at the fat cell A1 receptor (fat cell A1 receptor): more potent than the parent compound
activity at A1 receptors (A1 or A2 receptors): the most potent of N^6-substituted 9-methyladenines at A1 receptors
antagonist potency at the platelet A2 receptor [1]: more potent than 9-methyladenine itself

Cn1cnc2c(NCCc3ccsc3)ncnc21 [N^6-2-(3-thienylethyl)-9-methyladenine]
antagonistic potency at the fat cell A1 receptor (fat cell A1 receptor): more potent than 9-methyladenine itself

Nc1ncnc2nc[nH]c12 [Example 1, Adenine, reference compound]
antagonistic potency at the fat cell A1 receptor (fat cell A1 receptor): does not affect
antagonist potency at the platelet A2 receptor [1]: very weak antagonist
basal adenylate cyclase activity ([1]; human platelets, data not shown): does not affect
antagonist potency at the A2 receptor of PC12 cells [2]: very weak antagonist
Ki-values for inhibition of [^3H]PIA binding (A1 receptors): low potency

Cn1cnc2c(N)ncnc21 [Example 2, 9-methyladenine, reference compound]
antagonistic potency at the fat cell A1 receptor (fat cell A1 receptor): antagonizes the effect of R-PIA
antagonist potency at the platelet A2 receptor [1]: more potent than the adenine itself
antagonist potency at the A2 receptor of PC12 cells [2]: equally potent at A2 receptors of human platelets and rat PC12 cells
Ki-values for inhibition of [^3H]PIA binding (A1 receptors): equally potent at A1 receptors of fat cells and cerebral cortex

CNc1ncnc2c1ncn2C [Example 7, N^6-Methyl-9-MA]
antagonistic potency at the fat cell A1 receptor (fat cell A1 receptor): less potent than 9-methyladenine
antagonist potency at the platelet A2 receptor [1]: much less potent than 9-methyladenine

COc1cc(CCNc2ncnc3c2ncn3C)cc(OC)c1OC [Example 13, N^6-2-(3,4,5-trimethoxyphenylethyl)-9-methyladenine]
antagonist potency at the platelet A2 receptor [1]: as potent as 9-methyladenine
Ki-values for inhibition of [^3H]PIA binding (A1 receptors): very weak antagonists

Cn1cnc2c(NCCc3ccccc3)ncnc21 [Example 12, N^6-2-Phenethyl-9-MA]
antagonistic potency at the fat cell A1 receptor (fat cell A1 receptor): much less potent
antagonist potency at the platelet A2 receptor [1]: less potent than 9-methyladenine
Ki-values for inhibition of [^3H]PIA binding (A1 receptors): very weak antagonists

Cn1cnc2c(NCCc3ccsc3)ncnc21 [Example 15, N^6-2-(3-thienylethyl)-9-methyladenine]
antagonist potency at the platelet A2 receptor [1]: somewhat more potent

N^6-4-(-2-thienyl) -3-butyl) -9-MA [Example 23]
pKB (A1 adenosine receptor; [4]): 5.36 ± 0.1
basal force of contraction in the atria (A1 adenosine receptor): produced increases
antagonism at adenosine receptors in the atria (A1 adenosine receptor): competitive antagonists

C[C@@H](Cc1ccccc1)Nc1ncnc2c1ncn2C [Example 17, N^6-S-1-Phenyl-2-propyl-9-MA]
antagonistic potency at the fat cell A1 receptor (fat cell A1 receptor): more potent than the parent compound

Cn1c(=O)c2[nH]c(-c3ccccc3)nc2n(C)c1=O [Example 8-PT, 8-phenyltheophylline, reference compound]
antagonism of the effects of adenosine agonists in relaxing the taenia caecum (A2-adenosine receptors): did antagonize the effects of agonists at low concentrations

CCC(CC)Nc1ncnc2c1ncn2C [Example 8, N^6-3-pentyl-9-methyladenine]
antagonistic potency at the fat cell A1 receptor (fat cell A1 receptor): more potent than the parent compound
Kb (A1 adenosine receptor; [4]): 3980 nM
basal force of contraction in the atria (A1 adenosine receptor): produced increases
antagonism at adenosine receptors in the atria (A1 adenosine receptor): competitive antagonists
antagonist potency at the platelet A2 receptor [1]: more potent
antagonist potency at the A2 receptor of PC12 cells [2]: more potent at the platelet A2 receptor than at the PC12 A2 receptor
antagonism of the effects of adenosine agonists in relaxing the taenia caecum (A2-adenosine receptors): did not competitively antagonize

Cn1cnc2c(NCCc3cccnc3)ncnc21 [Example 14, N^6-2-(3-pyridylethyl)-9-methyladenine]
antagonist potency at the platelet A2 receptor [1]: less potent than 9-methyladenine

C[C@H](Cc1ccccc1)Nc1ncnc2c1ncn2C [Example 16, N^6-R-1-Phenyl-2-propyl-9-MA]
antagonistic potency at the fat cell A1 receptor (fat cell A1 receptor): more potent than the parent compound
antagonist potency at the platelet A2 receptor [1]: more potent than the S-isomer
Ki-values for inhibition of [^3H]PIA binding (A1 receptors): more potent than the S-isomer

Cn1cnc2c(Nc3ccccc3F)ncnc21 [Example 10, N^6-2-Fluorophenyl-9-MA]
antagonistic potency at the fat cell A1 receptor (fat cell A1 receptor): more potent than 9-methyladenine
antagonist potency at the platelet A2 receptor [1]: increases potency

Cn1cnc2c(N[C@@H]3C[C@@H]4CC[C@H]3C4)ncnc21 (relative stereo) [N^6-(endonorbornyl)-9-methyladenine]
effects of subsequently administered adenosine on blood pressure, heart rate and P-R interval [3]: attenuated
heart block caused by adenosine at high doses [3]: substantially reduced

Cn1cnc2c(NC3CCCC3)ncnc21 [Example 4, N^6-cyclopentyl-9-methyladenine]
antagonistic potency at the fat cell A1 receptor (fat cell A1 receptor): more potent than the parent compound
Kb (A1 adenosine receptor; [4]): 676 nM
antagonism at adenosine receptors in the atria (A1 adenosine receptor): competitive antagonists
activity at A1 receptors (A1 or A2 receptors): the most potent of N^6-substituted 9-methyladenines at A1 receptors
antagonist potency at the platelet A2 receptor [1]: more potent than 9-methyladenine itself
antagonist potency at the A2 receptor of PC12 cells [2]: more potent at the platelet A2 receptor than at the PC12 A2 receptor
antagonism of the effects of adenosine agonists in relaxing the taenia caecum (A2-adenosine receptors): did not competitively antagonize
Ki-values for inhibition of [^3H]PIA binding (A1 receptors): more potent than the N^6-methylcyclopentyl analog

Cn1cnc2c(NCc3ccccc3)ncnc21 [Example 11, N^6-benzyl-9-methyladenine]
activity at A1 receptors (A1 or A2 receptors): modest activity
antagonist potency at the platelet A2 receptor [1]: less potent than 9-methyladenine

Cn1cnc2c(Nc3ccccc3)ncnc21 [Example 9, N^6-Phenyl-9-MA]
antagonistic potency at the fat cell A1 receptor (fat cell A1 receptor): more potent than 9-methyladenine
antagonist potency at the platelet A2 receptor [1]: equipotent to 9-methyladenine
antagonist potency at the A2 receptor of PC12 cells [2]: more potent at the platelet A2 receptor than at the PC12 A2 receptor

Cn1cnc2c(NC3(C)CCCC3)ncnc21 [Example 5, N^6-1-methylcyclopentyl-9-methyladenine]
antagonistic potency at the fat cell A1 receptor (fat cell A1 receptor): less potent than the N^6-cyclopentyl analog
activity at A1 receptors (A1 or A2 receptors): reduces activity at A1 receptors
antagonist potency at the platelet A2 receptor [1]: less potent than the parent cyclopentyl analog
antagonist potency at the A2 receptor of PC12 cells [2]: reduces potency
